Assay [1] has as its target T1, Calcium/calmodulin-dependent protein kinase type IV (Homo sapiens, UniProt Q16566).
T1 sequence (Q16566 whole entry): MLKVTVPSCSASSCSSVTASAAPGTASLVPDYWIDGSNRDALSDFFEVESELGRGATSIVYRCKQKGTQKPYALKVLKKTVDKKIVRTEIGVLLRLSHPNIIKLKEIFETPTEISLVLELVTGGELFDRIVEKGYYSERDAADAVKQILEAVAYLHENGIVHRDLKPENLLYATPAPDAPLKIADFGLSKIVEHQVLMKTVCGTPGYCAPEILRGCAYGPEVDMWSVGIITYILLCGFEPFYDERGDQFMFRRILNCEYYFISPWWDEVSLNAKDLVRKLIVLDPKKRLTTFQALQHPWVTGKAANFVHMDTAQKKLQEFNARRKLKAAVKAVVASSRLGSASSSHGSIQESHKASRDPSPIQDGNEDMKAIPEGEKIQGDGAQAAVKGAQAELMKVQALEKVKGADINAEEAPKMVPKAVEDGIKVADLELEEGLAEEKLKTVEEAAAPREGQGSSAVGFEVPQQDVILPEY

For another assay, the target named is Ephrin type-A receptor 2 (Homo sapiens, UniProt P29317).
Chain of Ephrin type-A receptor 2 (P29317 whole entry): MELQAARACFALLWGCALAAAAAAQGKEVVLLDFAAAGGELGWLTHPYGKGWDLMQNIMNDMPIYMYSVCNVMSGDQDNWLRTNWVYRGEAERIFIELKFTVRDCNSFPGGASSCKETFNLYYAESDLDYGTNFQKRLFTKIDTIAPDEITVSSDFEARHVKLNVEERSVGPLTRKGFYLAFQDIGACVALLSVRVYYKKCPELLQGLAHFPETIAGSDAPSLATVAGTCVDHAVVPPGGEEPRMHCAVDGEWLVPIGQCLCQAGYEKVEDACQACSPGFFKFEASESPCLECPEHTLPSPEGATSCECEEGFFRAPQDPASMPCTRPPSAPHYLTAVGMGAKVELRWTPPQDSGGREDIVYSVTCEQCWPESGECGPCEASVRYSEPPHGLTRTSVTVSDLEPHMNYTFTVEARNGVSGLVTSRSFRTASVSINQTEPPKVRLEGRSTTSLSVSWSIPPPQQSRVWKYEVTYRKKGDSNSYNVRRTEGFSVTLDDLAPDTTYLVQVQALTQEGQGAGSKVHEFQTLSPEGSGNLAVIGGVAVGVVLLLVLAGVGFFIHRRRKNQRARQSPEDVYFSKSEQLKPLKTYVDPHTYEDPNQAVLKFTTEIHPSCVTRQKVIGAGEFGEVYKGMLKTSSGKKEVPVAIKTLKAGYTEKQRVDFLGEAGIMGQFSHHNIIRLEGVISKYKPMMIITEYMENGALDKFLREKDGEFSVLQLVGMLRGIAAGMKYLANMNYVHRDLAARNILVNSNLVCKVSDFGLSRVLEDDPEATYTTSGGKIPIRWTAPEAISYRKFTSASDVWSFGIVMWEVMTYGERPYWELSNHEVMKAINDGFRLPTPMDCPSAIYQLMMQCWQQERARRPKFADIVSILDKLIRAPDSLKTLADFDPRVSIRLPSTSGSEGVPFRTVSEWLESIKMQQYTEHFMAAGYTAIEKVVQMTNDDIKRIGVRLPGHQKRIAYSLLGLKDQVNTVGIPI
The target in assay [2] is MAP kinase-activated protein kinase 2 (Homo sapiens, UniProt P49137).
Chain of MAP kinase-activated protein kinase 2 (P49137 whole entry): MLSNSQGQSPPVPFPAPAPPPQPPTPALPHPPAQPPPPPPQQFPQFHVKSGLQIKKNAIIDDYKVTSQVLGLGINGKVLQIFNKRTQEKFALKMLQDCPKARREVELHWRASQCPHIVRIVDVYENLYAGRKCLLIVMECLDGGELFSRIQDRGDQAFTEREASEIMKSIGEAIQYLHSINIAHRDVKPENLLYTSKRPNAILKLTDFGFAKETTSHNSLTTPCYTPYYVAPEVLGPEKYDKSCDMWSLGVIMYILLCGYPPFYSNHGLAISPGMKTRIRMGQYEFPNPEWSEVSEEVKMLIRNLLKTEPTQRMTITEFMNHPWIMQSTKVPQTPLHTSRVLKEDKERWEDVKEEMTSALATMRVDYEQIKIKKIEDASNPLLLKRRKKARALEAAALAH
Another assay concerns the target Deoxycytidine kinase (Homo sapiens, UniProt P27707).
For assay [3], the target named is T2, Serine/threonine-protein kinase D3 (Homo sapiens, UniProt O94806).
T2 sequence (O94806 whole entry): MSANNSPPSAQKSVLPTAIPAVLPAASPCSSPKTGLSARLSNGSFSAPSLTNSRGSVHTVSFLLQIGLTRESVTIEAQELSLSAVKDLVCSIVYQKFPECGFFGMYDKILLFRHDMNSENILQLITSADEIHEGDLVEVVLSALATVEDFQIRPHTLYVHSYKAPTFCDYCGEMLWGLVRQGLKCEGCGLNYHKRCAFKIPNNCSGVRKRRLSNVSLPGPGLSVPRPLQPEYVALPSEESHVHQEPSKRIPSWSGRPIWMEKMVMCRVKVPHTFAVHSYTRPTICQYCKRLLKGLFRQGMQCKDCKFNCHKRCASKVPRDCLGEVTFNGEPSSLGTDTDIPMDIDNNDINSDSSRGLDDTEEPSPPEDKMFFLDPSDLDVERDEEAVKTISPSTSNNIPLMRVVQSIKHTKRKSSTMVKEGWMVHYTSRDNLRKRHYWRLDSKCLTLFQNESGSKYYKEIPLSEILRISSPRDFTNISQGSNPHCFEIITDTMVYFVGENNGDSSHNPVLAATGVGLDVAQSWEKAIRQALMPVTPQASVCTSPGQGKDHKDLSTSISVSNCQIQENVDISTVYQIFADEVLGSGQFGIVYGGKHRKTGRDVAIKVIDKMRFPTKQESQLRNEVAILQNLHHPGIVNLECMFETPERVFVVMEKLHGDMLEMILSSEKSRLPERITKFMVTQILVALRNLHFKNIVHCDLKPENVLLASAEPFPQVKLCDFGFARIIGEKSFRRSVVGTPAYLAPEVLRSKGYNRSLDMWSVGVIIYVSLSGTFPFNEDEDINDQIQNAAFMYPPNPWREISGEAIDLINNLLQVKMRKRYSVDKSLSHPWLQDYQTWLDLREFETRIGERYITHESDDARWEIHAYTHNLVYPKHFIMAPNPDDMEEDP

Assay [4] concerns the target Mitogen-activated protein kinase kinase kinase 1 (Homo sapiens, UniProt Q13233).
The target in assay [5] is Insulin-like growth factor 1 receptor (Homo sapiens, UniProt P08069).
Chain of Insulin-like growth factor 1 receptor (P08069 31-736 limits assumed): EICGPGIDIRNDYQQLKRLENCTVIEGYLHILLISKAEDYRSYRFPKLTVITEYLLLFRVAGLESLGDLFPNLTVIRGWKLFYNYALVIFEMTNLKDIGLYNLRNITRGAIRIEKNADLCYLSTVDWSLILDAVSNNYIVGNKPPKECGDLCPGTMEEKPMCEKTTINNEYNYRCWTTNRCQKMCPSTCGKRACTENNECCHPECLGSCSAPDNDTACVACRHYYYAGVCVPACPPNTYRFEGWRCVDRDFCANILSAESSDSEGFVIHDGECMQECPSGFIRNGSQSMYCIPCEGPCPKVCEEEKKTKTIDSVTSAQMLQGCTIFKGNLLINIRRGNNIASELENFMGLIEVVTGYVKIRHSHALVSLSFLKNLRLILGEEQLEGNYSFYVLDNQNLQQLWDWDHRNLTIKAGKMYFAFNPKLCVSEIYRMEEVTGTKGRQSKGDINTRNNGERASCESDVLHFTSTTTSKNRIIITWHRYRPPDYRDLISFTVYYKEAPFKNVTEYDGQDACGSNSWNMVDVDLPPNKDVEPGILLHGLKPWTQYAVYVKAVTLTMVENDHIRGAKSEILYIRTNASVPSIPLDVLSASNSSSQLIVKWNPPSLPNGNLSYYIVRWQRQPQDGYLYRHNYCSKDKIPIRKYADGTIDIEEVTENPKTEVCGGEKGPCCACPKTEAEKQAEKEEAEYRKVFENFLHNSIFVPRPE
Chain of Insulin-like growth factor 1 receptor (P08069 741-1367 limits assumed): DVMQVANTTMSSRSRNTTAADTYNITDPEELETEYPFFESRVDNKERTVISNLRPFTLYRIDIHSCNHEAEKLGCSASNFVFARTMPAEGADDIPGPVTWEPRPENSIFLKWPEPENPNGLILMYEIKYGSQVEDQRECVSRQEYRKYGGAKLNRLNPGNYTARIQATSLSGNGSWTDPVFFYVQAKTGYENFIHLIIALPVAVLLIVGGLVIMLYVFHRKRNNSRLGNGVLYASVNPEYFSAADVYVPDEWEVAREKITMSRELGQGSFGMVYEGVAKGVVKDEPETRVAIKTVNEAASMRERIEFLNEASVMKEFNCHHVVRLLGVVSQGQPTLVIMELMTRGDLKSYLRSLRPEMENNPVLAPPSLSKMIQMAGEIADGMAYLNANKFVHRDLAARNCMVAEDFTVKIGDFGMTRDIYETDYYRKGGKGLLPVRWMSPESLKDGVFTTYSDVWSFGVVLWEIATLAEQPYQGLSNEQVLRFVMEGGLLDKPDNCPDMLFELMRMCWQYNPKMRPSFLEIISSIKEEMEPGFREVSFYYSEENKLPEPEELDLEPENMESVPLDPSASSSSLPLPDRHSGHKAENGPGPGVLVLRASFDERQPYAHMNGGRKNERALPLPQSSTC
The target of assay [6] is T3, Ras-related protein Rab-27A (Homo sapiens, UniProt P51159).
T3 sequence (P51159 whole entry): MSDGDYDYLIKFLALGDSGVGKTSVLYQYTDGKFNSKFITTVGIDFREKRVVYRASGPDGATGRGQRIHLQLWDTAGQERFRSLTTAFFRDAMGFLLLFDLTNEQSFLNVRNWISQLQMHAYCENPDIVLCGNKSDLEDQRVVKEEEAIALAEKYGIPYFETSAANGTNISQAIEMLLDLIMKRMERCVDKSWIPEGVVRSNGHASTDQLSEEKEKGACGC

Assay [7] has as its target Cyclin-dependent kinase 13 (Homo sapiens, UniProt Q14004).
For assay [8], the target named is T4, Acyl-CoA dehydrogenase family member 10 (Homo sapiens, UniProt Q6JQN1).
T4 sequence (Q6JQN1 whole entry): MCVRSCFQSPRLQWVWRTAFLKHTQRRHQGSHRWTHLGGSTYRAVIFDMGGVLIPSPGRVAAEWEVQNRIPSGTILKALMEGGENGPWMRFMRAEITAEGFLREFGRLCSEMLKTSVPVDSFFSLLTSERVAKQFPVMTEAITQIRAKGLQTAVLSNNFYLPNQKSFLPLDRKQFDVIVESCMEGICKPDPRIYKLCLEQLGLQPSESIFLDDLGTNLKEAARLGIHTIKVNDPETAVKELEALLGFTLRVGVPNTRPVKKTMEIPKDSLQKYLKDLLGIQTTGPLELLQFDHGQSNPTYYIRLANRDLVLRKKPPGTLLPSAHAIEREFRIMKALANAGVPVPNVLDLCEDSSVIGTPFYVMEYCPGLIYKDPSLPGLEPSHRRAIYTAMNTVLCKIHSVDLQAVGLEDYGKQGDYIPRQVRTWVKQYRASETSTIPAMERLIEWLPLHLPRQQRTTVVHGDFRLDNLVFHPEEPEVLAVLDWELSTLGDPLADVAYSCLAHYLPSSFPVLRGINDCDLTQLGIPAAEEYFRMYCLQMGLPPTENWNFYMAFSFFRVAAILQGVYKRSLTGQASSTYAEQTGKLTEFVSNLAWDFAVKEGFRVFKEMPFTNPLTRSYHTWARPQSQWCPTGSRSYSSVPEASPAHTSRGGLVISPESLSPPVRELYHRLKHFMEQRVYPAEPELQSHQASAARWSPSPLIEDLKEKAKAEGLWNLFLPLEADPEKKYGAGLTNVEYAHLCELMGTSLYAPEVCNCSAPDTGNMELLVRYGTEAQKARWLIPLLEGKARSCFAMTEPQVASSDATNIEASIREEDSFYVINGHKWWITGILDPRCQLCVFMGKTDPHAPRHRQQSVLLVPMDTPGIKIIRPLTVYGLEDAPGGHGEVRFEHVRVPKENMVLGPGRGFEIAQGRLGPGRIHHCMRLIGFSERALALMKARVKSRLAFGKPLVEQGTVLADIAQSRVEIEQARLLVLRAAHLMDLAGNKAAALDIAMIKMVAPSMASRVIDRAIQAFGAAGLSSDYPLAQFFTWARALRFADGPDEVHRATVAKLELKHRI

From ChEMBL document CHEMBL3991601, “The target landscape of clinical kinase drugs” (Science, 2017) come the findings set out here.

Calls of active or inactive are those of the source. Rule as the data show it, for most assays here: actives have a measured Kd and inactives only a lower limit.
Also: in the data inactive means no Kd found up to 30 µM.

Chain of Mitogen-activated protein kinase kinase kinase 1 (Q13233 whole entry): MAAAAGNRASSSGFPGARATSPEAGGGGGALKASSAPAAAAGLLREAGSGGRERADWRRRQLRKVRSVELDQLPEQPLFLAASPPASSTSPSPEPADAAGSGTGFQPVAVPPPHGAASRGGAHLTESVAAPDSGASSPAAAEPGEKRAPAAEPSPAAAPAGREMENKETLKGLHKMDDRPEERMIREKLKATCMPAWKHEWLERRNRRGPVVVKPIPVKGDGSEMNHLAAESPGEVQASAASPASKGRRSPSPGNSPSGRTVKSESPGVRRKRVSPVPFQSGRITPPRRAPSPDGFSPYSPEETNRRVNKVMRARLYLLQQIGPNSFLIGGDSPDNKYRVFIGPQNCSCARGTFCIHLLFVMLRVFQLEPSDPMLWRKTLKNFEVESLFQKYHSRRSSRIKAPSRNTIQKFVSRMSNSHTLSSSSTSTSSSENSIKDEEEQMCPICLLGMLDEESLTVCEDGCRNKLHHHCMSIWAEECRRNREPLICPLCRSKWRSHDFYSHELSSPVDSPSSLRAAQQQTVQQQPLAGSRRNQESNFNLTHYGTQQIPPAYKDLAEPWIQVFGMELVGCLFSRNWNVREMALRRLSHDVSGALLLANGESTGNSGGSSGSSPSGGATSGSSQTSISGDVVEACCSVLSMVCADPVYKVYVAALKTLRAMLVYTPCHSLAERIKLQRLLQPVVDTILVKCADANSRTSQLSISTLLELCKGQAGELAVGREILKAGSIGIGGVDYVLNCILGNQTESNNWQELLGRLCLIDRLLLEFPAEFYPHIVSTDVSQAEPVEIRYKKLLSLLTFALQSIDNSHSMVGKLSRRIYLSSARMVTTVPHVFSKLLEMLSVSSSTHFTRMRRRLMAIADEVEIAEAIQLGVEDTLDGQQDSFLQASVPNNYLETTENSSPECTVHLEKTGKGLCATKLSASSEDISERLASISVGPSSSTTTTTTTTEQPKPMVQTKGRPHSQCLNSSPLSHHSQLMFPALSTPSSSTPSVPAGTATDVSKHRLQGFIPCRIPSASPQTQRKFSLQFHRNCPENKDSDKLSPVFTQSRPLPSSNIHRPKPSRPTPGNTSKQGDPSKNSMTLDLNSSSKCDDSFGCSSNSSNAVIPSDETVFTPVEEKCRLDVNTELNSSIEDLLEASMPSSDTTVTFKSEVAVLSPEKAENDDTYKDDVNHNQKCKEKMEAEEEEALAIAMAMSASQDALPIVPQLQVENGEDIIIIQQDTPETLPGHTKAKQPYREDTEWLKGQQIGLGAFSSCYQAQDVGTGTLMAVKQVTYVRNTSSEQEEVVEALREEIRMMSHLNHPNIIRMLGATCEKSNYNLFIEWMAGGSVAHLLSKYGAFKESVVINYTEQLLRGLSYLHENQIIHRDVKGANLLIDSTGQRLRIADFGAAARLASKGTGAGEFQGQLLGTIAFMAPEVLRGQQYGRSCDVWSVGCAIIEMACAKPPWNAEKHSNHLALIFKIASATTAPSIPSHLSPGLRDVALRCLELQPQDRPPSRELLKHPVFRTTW
Chain of Deoxycytidine kinase (P27707 whole entry): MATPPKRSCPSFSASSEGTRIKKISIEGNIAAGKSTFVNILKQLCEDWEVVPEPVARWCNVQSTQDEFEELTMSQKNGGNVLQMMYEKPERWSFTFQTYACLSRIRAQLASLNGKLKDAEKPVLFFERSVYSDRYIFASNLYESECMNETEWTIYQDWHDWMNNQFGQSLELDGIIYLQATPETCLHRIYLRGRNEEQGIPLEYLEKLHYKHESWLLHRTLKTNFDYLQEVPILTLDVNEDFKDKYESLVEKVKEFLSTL

Take `COc1cc2c(Nc3ccc(Cl)c(Cl)c3F)ncnc2cc1OC[C@@H]1C[C@@H]2CN(C)C[C@@H]2C1` [TESEVATINIB]: the Kd (in general, the constant that tells how readily two partners part at equilibrium) in assay [1] is > 30 µM (inactive); on Ephrin type-A receptor 2, 0.501 µM (active); in [2], 1.52 µM (active); on Deoxycytidine kinase, > 30 µM (inactive); in assay [3], > 30 µM (inactive); in [4], 1.74 µM (active). In addition, the Kd in [5], in [6], in assay [7] and in [8] was > 30 µM (inactive) throughout.
As for `O=C(Cc1ccc(-c2ccc(OCCN3CCOCC3)cc2)cn1)NCc1ccccc1` [TIRBANIBULIN], the Kd (in assay [1]; on Ephrin type-A receptor 2; in assay [2]; at Deoxycytidine kinase; in assay [3]; in assay [4]) was > 30 µM (inactive) in each case. Besides, the Kd in assay [5], in [6], in [7] and in assay [8] was > 30 µM (inactive) each time.
In the case of `O=C1NC(=O)[C@@H](c2cn3c4c(cccc24)CCC3)[C@@H]1c1c[nH]c2ccccc12` [TIVANTINIB], the Kd (in assay [1]; on Ephrin type-A receptor 2; in assay [2]; on Deoxycytidine kinase; in assay [3]; in assay [4]) was > 30 µM (inactive) throughout. The Kd in assay [5], in assay [6], in assay [7] and in assay [8] was > 30 µM (inactive) throughout.
As for `C[C@@H](NC(=O)c1ncnc(N)c1Cl)c1ncc(C(=O)Nc2cc(C(F)(F)F)c(Cl)cn2)s1` [TOVORAFENIB], the Kd was > 30 µM (inactive) in assay [1]; 0.807 µM (active) on Ephrin type-A receptor 2; > 30 µM (inactive) in [2]; > 30 µM (inactive) at Deoxycytidine kinase; > 30 µM (inactive) in assay [3]; 2.09 µM (active) in assay [4]. For the same compound, the Kd in assay [5], in assay [6], in assay [7] and in assay [8] was > 30 µM (inactive) each time.
As to `Cc1cc(Nc2ncnc3ccc(NC4=NC(C)(C)CO4)cc23)ccc1Oc1ccn2ncnc2c1` [TUCATINIB], the Kd (in assay [1]; at Ephrin type-A receptor 2; in [2]; on Deoxycytidine kinase; in [3]; in assay [4]) was > 30 µM (inactive) each time. Moreover, the Kd in assay [5], in assay [6], in assay [7] and in [8] was > 30 µM (inactive) in each case.
